Patent US20260184708A1, “PYRIDAZINONES AND METHODS OF USE THEREOF” (GFB (ABC), LLC, priority 2017, published 2026)

target: T1, TRPC5 (Homo sapiens, UniProt Q9UL62); experiment: TRPC5 Fluorescence Assay - FLIPR format (HEK-TREx hTRPC5, Riluzole stimulation); type: cell-based; settings: Table 7, read-out: TRPC5-FLIPR IC50
T1 construct: expressed in transfected cells; host or cells: HEK 293
T1 sequence (Q9UL62 1-973): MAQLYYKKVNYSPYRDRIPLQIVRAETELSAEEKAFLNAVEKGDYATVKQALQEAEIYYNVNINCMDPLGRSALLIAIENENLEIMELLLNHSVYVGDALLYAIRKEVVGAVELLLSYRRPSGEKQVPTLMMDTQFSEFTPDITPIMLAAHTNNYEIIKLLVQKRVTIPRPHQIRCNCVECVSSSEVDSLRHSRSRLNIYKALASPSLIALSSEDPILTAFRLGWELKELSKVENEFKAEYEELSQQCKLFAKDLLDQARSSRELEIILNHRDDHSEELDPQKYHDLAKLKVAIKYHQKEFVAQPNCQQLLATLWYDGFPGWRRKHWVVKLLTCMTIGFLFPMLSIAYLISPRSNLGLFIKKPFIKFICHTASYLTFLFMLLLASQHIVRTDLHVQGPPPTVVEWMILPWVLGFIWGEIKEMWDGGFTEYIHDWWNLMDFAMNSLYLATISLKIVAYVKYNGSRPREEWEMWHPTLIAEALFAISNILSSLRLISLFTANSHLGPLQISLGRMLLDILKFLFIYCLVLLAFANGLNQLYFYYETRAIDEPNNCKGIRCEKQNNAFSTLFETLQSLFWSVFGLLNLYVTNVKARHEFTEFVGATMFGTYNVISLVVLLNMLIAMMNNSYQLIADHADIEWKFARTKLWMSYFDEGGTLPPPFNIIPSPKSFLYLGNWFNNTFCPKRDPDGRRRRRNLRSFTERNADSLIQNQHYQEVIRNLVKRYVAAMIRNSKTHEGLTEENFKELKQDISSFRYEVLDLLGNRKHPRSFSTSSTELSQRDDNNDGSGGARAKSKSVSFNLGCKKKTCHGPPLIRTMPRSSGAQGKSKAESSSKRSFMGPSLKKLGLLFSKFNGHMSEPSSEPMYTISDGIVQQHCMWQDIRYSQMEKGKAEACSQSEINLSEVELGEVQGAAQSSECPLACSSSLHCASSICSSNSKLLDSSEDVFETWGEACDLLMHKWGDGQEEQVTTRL
Description: • Cell line: ICLN-001633 • Base Cell: HEK • Channel: TRPC5 • Species: Human • Thaw ID: multiple • Passage: multiple
FLIPR Assay Buffer (Earls Balanced Salt Solution (EBSS) was prepared as follows:
Test Agent Preparation: Compounds were made up to, or supplied as, a 10 mM stock solution generally using DMSO as the vehicle. 10-point dose response curves were generated using the Echo-550 acoustic dispenser. Compound source plates were made by serially diluting compound stocks to create 10 mM, 1 mM, and 0.1 mM solutions in DMSO into Echo certified LDV plates. The Echo then serially spotted 100% DMSO stock solutions into source dose response plates to generate a 4-fold dilution scheme. 100% DMSO was added to the spotted dose response plates to bring the final volume to 5 μl. […] of the dose response stock plate was then spotted into pre-incubation and stimulation assay plates. 50 μl of pre-incubation buffer and 100 μl of stimulation buffer was then added to the plates resulting in a final assay test concentration range of 30 μM to 0.0001 μM with a final DMSO concentration of 0.3%.
Experimental Methods: Cells expressing TRPC5 (HEK-TREx hTRPC5) are plated onto 384 well, black PDL-coated microplates and maintained in TRPC5 growth media the day prior to use for experiments. TRPC5 expression is induced by the application of […] tetracycline at the time of plating. Media is removed from the plates and 10 μl of 4 μM of Fluo-4 AM (mixed with equal volume of Pluronic F-127) in EBSS is added to the cells. Cells are incubated at room temperature, protected from light, for 60-90 minutes. After the incubation period, the dye is removed and replaced with 10 μl of EBSS. Cell, pre-incubation and stimulation plates are loaded onto the FLIPR-II and the assay is initiated. The FLIPR measures a 10 second baseline and then adds 10 μl of 2× compounds (or controls). Changes in fluorescence are monitored for an additional 5 minutes. After the 5 minute pre-incubation, 20 μl of 2× Riluzole (with 1× compound or controls) is added to the cell plate. The final Riluzole stimulation concentration in the assay is 30 μM. After the Riluzole addition, changes in fluorescence are monitored for an additional 5 minutes.
Test Agent Effect: Test agent modulation of TRPC5 calcium response was determined as follows. After the Riluzole, fluorescence was monitored for a 5 minute period. The maximum relative fluorescene response (minus the control response of 1 μM of the control inhibitor) was captured and exported from the FLIPR. Test agent effect was calculated as % inhibition using the following formula: % inhibition=((RFU Test Agent−Plate Average RFU REF INHIB)/(Plate Average RFU Control−Plate Average RFU REF INHIB))×100

SMILES	IC50 [nM]
O=c1[nH]ncc(N2CCc3c(c(=O)[nH]n3Cc3ccccc3C(F)F)C2)c1Cl [drawing 936]	0.01 to 1000
COCc1ncccc1CN1CCN(c2cn[nH]c(=O)c2Cl)CC1 [drawing 926]	0.01 to 1000
CCc1ncccc1[C@H](C)n1nnc2c1CCN(c1cn[nH]c(=O)c1Cl)C2 [drawing 928]	0.01 to 1000
COc1nn(Cc2ccccc2C(F)F)c2c1CN(c1cn[nH]c(=O)c1Cl)CC2 [drawing 931]	0.01 to 1000
NC(=O)c1nn(Cc2ccccc2C(F)F)c2c1CN(c1cn[nH]c(=O)c1Cl)CC2	0.01 to 1000
CN(Cc1ccccc1C(F)(F)F)c1ncnc2c1CCN(c1cn[nH]c(=O)c1Cl)C2	5000 to 10000

same assay, conditions: Table 9, read-out: hTRPCS-FLIPR IC50

SMILES	IC50 [nM]
O=c1[nH]ncc(N2CCN(S(=O)(=O)Cc3ccccc3C(F)(F)F)CC2)c1Cl	1000 to 5000
O=C(CN1CCN(c2cn[nH]c(=O)c2Cl)CC1)c1ccccc1C(F)(F)F	1000 to 5000
COCc1ncccc1CN1CCN(c2cn[nH]c(=O)c2Cl)CC1 [drawing 1030]	0.01 to 1000
CCc1ncccc1[C@@H](C(C)C)N1CCN(c2cn[nH]c(=O)c2Cl)CC1	0.01 to 1000
C[C@@H](O)c1ncccc1CN1CCN(c2cn[nH]c(=O)c2Cl)CC1	1000 to 5000
CCc1ncccc1[C@@H](CC)N1CCN(c2cn[nH]c(=O)c2C#N)CC1	0.01 to 1000
Cc1ccccc1C(O)C1CCN(c2cn[nH]c(=O)c2Cl)CC1 (stereo not drawn)	1000 to 5000
CC[C@@H](c1cccnc1CC(C)C)C1CCN(c2cn[nH]c(=O)c2Cl)CC1	0.01 to 1000
CCc1ncccc1[C@H](C(C)C)N1CCN(c2cn[nH]c(=O)c2Cl)CC1	1000 to 5000
CCc1ncccc1[C@@H](CC)N1CCN(c2cn[nH]c(=O)c2Cl)CC1	1000 to 5000
CCc1ncccc1[C@@H](C)N1CCN(c2cn[nH]c(=O)c2Cl)CC1	0.01 to 1000
CC(F)(F)c1ccccc1CC1(O)CCN(c2cn[nH]c(=O)c2Cl)CC1	0.01 to 1000
CCn1nnc(C)c1CN1CCN(c2cn[nH]c(=O)c2Cl)CC1	1000 to 5000
Cc1ccccc1CC1(OC(N)=O)CCN(c2cn[nH]c(=O)c2Cl)CC1	1000 to 5000

same assay, conditions: Table 10, read-out: TRPCS-FLIPR IC50

SMILES	IC50 [nM]
N[C@@H](c1nn(Cc2ccccc2C(F)(F)F)c2c1CN(c1cn[nH]c(=O)c1Cl)CC2)C(F)(F)F	1000 to 5000
O=c1[nH]ncc(N2CCc3c(c(-c4ncn[nH]4)nn3Cc3ccccc3C(F)(F)F)C2)c1Cl	1000 to 5000
C[C@@H]1Cc2c(nnn2[C@H](C)c2ccc(F)cc2C(F)(F)F)CN1c1cn[nH]c(=O)c1Cl	0.01 to 1000
C[C@H](c1ccc(F)cc1CN1CCOCC1)n1nnc2c1CCN(c1cn[nH]c(=O)c1Cl)C2	1000 to 5000
CO[C@@H]1CN(c2cn[nH]c(=O)c2Cl)Cc2nnn(Cc3ccccc3C(F)F)c21	1000 to 5000
C[C@H]1c2nnn([C@@H](C)c3ccccc3C(F)(F)F)c2CCN1c1cn[nH]c(=O)c1Cl	0.01 to 1000
C[C@@H](c1ccccc1C(F)(F)F)n1nc(C(N)=O)c2c1CCN(c1cn[nH]c(=O)c1Cl)C2	0.01 to 1000
O=c1[nH]ncc(N2CCc3c(ncn3Cc3cccnc3[C@H](O)C(F)(F)F)C2)c1Cl	0.01 to 1000
CCc1ncccc1[C@H](C)n1nnc2c1CCN(c1cn[nH]c(=O)c1Cl)C2 [drawing 1059]	0.01 to 1000
C[C@H]1c2nnn([C@@H](C)c3ccc(F)cc3C(F)(F)F)c2CCN1c1cn[nH]c(=O)c1Cl	0.01 to 1000
CN(c1ncc2c(n1)CN(c1cn[nH]c(=O)c1Cl)C2)c1ccccc1Cl	0.01 to 1000
O=c1[nH]ncc(N2CCc3c(Nc4ccc(F)cc4C(F)(F)F)n[nH]c3C2)c1Cl	0.01 to 1000
CN(C)Cc1cc(F)ccc1Cn1nnc2c1CCN(c1cn[nH]c(=O)c1Cl)C2	1000 to 5000
CO[C@H]1CN(c2cn[nH]c(=O)c2Cl)Cc2nnn(Cc3ccccc3C(F)F)c21	1000 to 5000
COC[C@@H](c1ccccc1C(F)(F)F)n1cnc2c1CCN(c1cn[nH]c(=O)c1Cl)C2	0.01 to 1000
C[C@@H](c1ccc(F)cc1CN1CCN(C)CC1)n1nnc2c1CCN(c1cn[nH]c(=O)c1Cl)C2	5000 to 10000
C[C@@H]1CCC[C@H]1Cn1nnc2c1CCN(c1cn[nH]c(=O)c1Cl)C2	0.01 to 1000
NC[C@H](c1ccc(F)cc1C(F)(F)F)n1cnc2c1CCN(c1cn[nH]c(=O)c1Cl)C2	5000 to 10000
O=c1[nH]ncc(N2CCc3c(c(CN4CCOCC4)nn3Cc3ccccc3C(F)F)C2)c1Cl	0.01 to 1000
O=c1[nH]ncc(N2CCc3c(nnn3Cc3ccccc3CO)C2)c1Cl	1000 to 5000
O=c1[nH]ncc(N2CCc3c(nc(Oc4cccc(F)c4)n3Cc3ccccc3C(F)(F)F)C2)c1Cl	0.01 to 1000
CC(C)C(=O)Nc1nn(Cc2ccccc2C(F)(F)F)c2c1CN(c1cn[nH]c(=O)c1Cl)CC2	0.01 to 1000

SMILES	IC50 [nM]
C[C@H](c1ccc(Cl)cc1C(F)(F)F)n1nnc2c1CCN(c1cn[nH]c(=O)c1Cl)C2	0.01 to 1000
O=c1[nH]ncc(N2Cc3cnc(Oc4ccccc4C(F)(F)F)nc3C2)c1Cl	0.01 to 1000
O=C(c1nn(Cc2ccccc2C(F)F)c2c1CN(c1cn[nH]c(=O)c1Cl)CC2)N1CCOCC1	0.01 to 1000
COC[C@H](c1ccc(F)cc1C(F)(F)F)n1cnc2c1CCN(c1cn[nH]c(=O)c1Cl)C2	0.01 to 1000
COc1nn(Cc2ccccc2C(F)(F)F)c2c1CN(c1cn[nH]c(=O)c1Cl)CC2	0.01 to 1000
O=C1COCCN1Cc1nn(Cc2ccccc2C(F)F)c2c1CN(c1cn[nH]c(=O)c1Cl)CC2	0.01 to 1000
N[C@H](c1cc(F)ccc1Cn1nnc2c1CCN(c1cn[nH]c(=O)c1Cl)C2)C(F)(F)F	0.01 to 1000
O=c1[nH]ncc(C2CCc3c(nnn3Cc3ccccc3C(F)(F)F)C2)c1Cl (stereo not drawn)	10000 to 500000
O=c1[nH]ncc(N2CCc3c(c(=O)[nH]n3Cc3ccccc3C(F)F)C2)c1Cl [drawing 1052]	0.01 to 1000
C[C@@H](c1cc(F)ccc1C(F)(F)F)n1nnc2c1CCN(c1cn[nH]c(=O)c1Cl)C2	0.01 to 1000
C[C@@H](c1ccc(F)cc1CN1CCOCC1)n1nnc2c1CCN(c1cn[nH]c(=O)c1Cl)C2	1000 to 5000
N[C@H](c1nn(Cc2ccccc2C(F)(F)F)c2c1CN(c1cn[nH]c(=O)c1Cl)CC2)C(F)(F)F	1000 to 5000
N#Cc1nn(Cc2ccccc2C(F)F)c2c1CN(c1cn[nH]c(=O)c1Cl)CC2	0.01 to 1000
C[C@H](c1ccccc1C(F)(F)F)n1[nH]c(=O)c2c1CCN(c1cn[nH]c(=O)c1Cl)C2	0.01 to 1000
CCCOc1nc2c(n1Cc1ccccc1C(F)(F)F)CCN(c1cn[nH]c(=O)c1Cl)C2	0.01 to 1000
O=c1[nH]ncc(N2CCc3c(nnn3Cc3ccc(F)cc3CN3CCOCC3)C2)c1Cl	1000 to 5000
N[C@@H](c1cc(F)ccc1Cn1nnc2c1CCN(c1cn[nH]c(=O)c1Cl)C2)C(F)(F)F	1000 to 5000
N#Cc1nn(Cc2ccccc2C(F)(F)F)c2c1CN(c1cn[nH]c(=O)c1Cl)CC2	0.01 to 1000
Cn1c(=O)c2c(n1Cc1ccccc1C(F)(F)F)CCN(c1cn[nH]c(=O)c1Cl)C2	1000 to 5000
O=c1[nH]ncc(N2CCc3c(nnn3Cc3ccc(F)cc3Cl)C2)c1Cl	0.01 to 1000
C[C@H](c1ccc(F)cc1C(F)F)n1nnc2c1CCN(c1cn[nH]c(=O)c1Cl)C2	0.01 to 1000
